Test results as given in patent US20250270227A1, “CAMPTOTHECIN DERIVATIVE, AND PHARMACEUTICAL COMPOSITION AND USE THEREOF” (SIMCERE ZAIMING PHARMACEUTICAL CO., LTD., priority 2021, published 2025).
pIC50: −log10 of the molar value. Read-outs that look alike come from different tables or passages of the source.

Key:
[1] = tested on: Human ovarian cancer cell line SK-OV-3; assay: Test 2 of anti-proliferative activity against tumor cells (Cell-Titer Glo); format: cell-based; conditions: for pIC50: SK-OV-3 cells, 5 days, Cell-Titer Glo, read-out: SK-OV-3 Anti-proliferative activity IC50; for IC50: read-out: SK-OV-3 Anti-proliferative activity IC50 (nM)
Protocol: (§1) Cell culture: SK-OV-3 cells were cultured in McCoy's 5a medium containing 10% fetal bovine serum+1% penicillin-streptomycin, PA-1 cells were cultured in MEM medium containing 10% fetal bovine serum+1% MEM NEAA+1% sodium pyruvate+1% penicillin-streptomycin, NCI-H82 cells and MDA-MB-231 cells were cultured in 1640 medium containing 10% fetal bovine serum+1% penicillin-streptomycin, A549 cells were cultured in DMEM medium containing 10% fetal bovine serum+1% penicillin-streptomycin, all under conditions of 37° C. and 5% CO2. Cells in logarithmic growth phase were suitable for the experiment.
(§2) Detection of cell proliferation activity: The inhibitory activity of the compounds on the proliferation of the five cell lines SK-OV-3, PA-1, NCI-H82, MDA-MB-231 and A549 was detected using Cell-Titer Glo reagent. SK-OV-3 cell (1000 cells per well), PA-1 cells (800 cells per well), NCI-H82 cells (5000 cells per well), MDA-MB-231 cells (3000 cells per well) and A549 cells (400 cells per well) were seeded in 96-well plates and cultured at 37° C. and 5% CO2 for 24 h. The compound to be tested was dissolved in DMSO to a concentration of 1 mM, then subjected to gradient dilution with DMSO and corresponding medium, and transferred to 96-well cell plates to a final concentration of 300 nM (initial concentration), with 3-fold dilution and a total of 9 concentration points. The cells were cultured at 37° C. and 5% CO2 for additional 5 days. The cell viability was detected by adding Cell-Titer Glo reagent.
(§3) Additionally, a negative control group and a positive control group were provided as Bottom and Top, respectively. In the negative control group, the cells were not added, only the same volume of medium was added, and other operations were consistent with those in the experimental group; in the positive control group, the test compound was not added, only the same volume of DMSO was added, and other operations were consistent with those in the experimental group.
(§4) Data analysis: The % compound inhibition was calculated, and fitting was performed to obtain IC50 of the compound.
(§5) % Compound inhibition=1−100%*(Signal−Bottom)/(Top−Bottom).
(§6) Signal represents the signal value of the experimental group, Bottom represents the average signal value of the negative control group, and Top represents the average signal value of the positive control group.

[2] = tested on: human breast cancer cell line MDA-MB-231; assay: as above; format: cell-based; conditions: Homo sapiens, MDA-MB-231, 120 h; for IC50: read-out: MDA-MB-231 Anti-proliferative activity IC50 (nM); for pIC50: MDA-MB-231 cells, 5 days, Cell-Titer Glo, read-out: MDA-MB-231 Anti-proliferative activity IC50
Protocol: as §1, §2, §3, §4, §5, §6

[3] = tested on: human ovarian cancer cell line PA-1; assay: as above; format: cell-based; conditions: for IC50: read-out: PA-1 Anti-proliferative activity IC50 (nM), PA-1 cells, 5 days, Cell-Titer Glo; for pIC50: read-out: PA-1 Anti-proliferative activity IC50, PA-1 cells, 5 days, Cell-Titer Glo
Protocol: as §1, §2, §3, §4, §5, §6

[4] = tested on: human small cell lung cancer cell line NCI-H82; assay: as above; format: cell-based; conditions: read-out: NCI-H82 Anti-proliferative activity IC50, NCI-H82 cells, 5 days, Cell-Titer Glo
Protocol: as §1, §2, §3, §4, §5, §6

[5] = tested on: human non-small cell lung cancer cell line A549; assay: as above; format: cell-based; conditions: for IC50: read-out: A549 Anti-proliferative activity IC50 (nM), A549 cells, 5 days, Cell-Titer Glo; for pIC50: read-out: A549 Anti-proliferative activity IC50, A549 cells, 5 days, Cell-Titer Glo
Protocol: as §1, §2, §3, §4, §5, §6

[6] = Plasma protein binding rate (equilibrium dialysis); format: in vitro ADME, human; conditions: pH 7.4
Protocol: The protein binding rates of the compounds of the present disclosure in human and mouse plasma were determined by the following experimental method.
• 1. Human plasma (BioIVT), CD-1 mouse plasma (BiolVT) • 2. Na2HPO4 (Sigma S5136-500G) • 3. NaH2PO4 (Sigma 53139-500G) • 4. NaCl (Sigma S5886-IKG) • 5. 96-well equilibrium dialysis plate (HTDialysis LLC, Gales Ferry, CT, HTD96B) and equilibrium dialysis membrane (MWCO 12-14K, 1101) • 6. Positive control compound warfarin • 7. ABI QTrap 5500 liquid chromatography-mass spectrometry
• 1. Preparation of a buffer with a concentration of 100 mM sodium phosphate and 150 mM NaCl: An alkaline solution with a concentration of 14.2 g/L Na2HPO4 and 8.77 g/L NaCl was prepared with ultrapure water, and an acidic solution with a concentration of 12.0 g/L NaH2PO4 and 8.77 g/L NaCl was prepared with ultrapure water. Then the alkaline solution was titrated to pH 7.4 with the acidic solution to prepare a buffer with a concentration of 100 mM sodium phosphate and 150 mM NaCl. • 2. Preparation of dialysis membrane: The dialysis membrane was soaked in ultrapure water for 60 min to separate the membrane into two pieces, then soaked in 20% ethanol for 20 min, and finally soaked in a buffer used for dialysis for 20 min. • 3. Preparation of plasma: The frozen plasma was quickly thawed at room temperature, and then centrifuged at 3220 g for 10 min at 4° C. to remove clots, and the supernatant was collected into a new centrifugal tube. The pH of the plasma was determined and recorded, and the plasma with pH of 7-8 was used. • 4. Preparation of compound-containing plasma samples: The 10 mM stock solution of the compound of the present invention or the positive control compound was diluted with DMSO to obtain a 200 μM working solution. To 597 μl of human or mouse plasma was added 3 μl of 200 μM compound working solution to obtain a plasma sample with a final concentration of 1 μM. • 5. […]
The peak areas of the compound on the buffer side and the plasma side were determined. […]

`CC[C@@]1(O)C(=O)OCc2c1cc1n(c2=O)Cc2c-1nc1cc3c(cc1c2CNC(=O)C(O)C1CC1)OCO3` (single isomer, unassigned) [Compound 14-P1] gave a pIC50 ([1]; Homo sapiens, SK-OV-3, 120 h) of 8.66, an IC50 [2] of 7.5 nM and an IC50 ([3]; Homo sapiens, PA-1, 120 h) of 0.7 nM. For the same molecule, the pIC50 [4] was 8.66, the IC50 ([5]; Homo sapiens, A549, 120 h) was 10.2 nM and the fraction unbound at 6 h, 1 μM ([6]; human plasma, 1 μM, equilibrium dialysis 6 h, 37° C., read-out: % Human plasma protein binding rate (converted)) was 0.106.

Work on `CC[C@@]1(O)C(=O)OCc2c1cc1n(c2=O)Cc2c-1nc1cc3c(cc1c2CNC(=O)C(O)C1CC1)OCO3` (single isomer, unassigned) [Compound 14-P2] yielded a pIC50 [1] of 8.49, a pIC50 [2] of 8.06 and a pIC50 [3] of 9.05. It also gave a pIC50 [4] of 8.33 and a pIC50 [5] of 7.84.

For `CC[C@@]1(O)C(=O)OCc2c1cc1n(c2=O)Cc2c-1nc1cc3c(c(F)c1c2CNC(=O)[C@@H](O)C1CC1)OCO3` (single isomer, unassigned) [Compound 37-P1], the pIC50 ([1]; Homo sapiens, SK-OV-3, 120 h) was 8.68, the pIC50 [2] was 7.88 and the pIC50 ([3]; Homo sapiens, PA-1, 120 h) was 9.05. For the same molecule, the pIC50 ([5]; Homo sapiens, A549, 120 h) was 8.04 and the fraction unbound at 6 h, 1 μM ([6]; human, plasma) was 0.128.

For `CC[C@@]1(O)C(=O)OCc2c1cc1n(c2=O)Cc2c-1nc1cc3c(cc1c2CNC(=O)C(O)C1CC1)OCO3` (stereo partly drawn) [Compound 14, 2-cyclopropyl-N-(((S)-7-ethyl-7-hydroxy-8,11-dioxo-7,8,11,13-tetrahydro-10H-[1,3]dioxolo[4,5-g]pyrano[3′,4′:6,7]indolizino[1,2-b]quinolin-14-yl)methyl)-2-hydroxyacetamide], the IC50 ([1]; Homo sapiens, SK-OV-3, 120 h) was 3 nM, the pIC50 [2] was 7.98 and the pIC50 ([3]; Homo sapiens, PA-1, 120 h) was 9.00. It also gave a pIC50 ([4]; Homo sapiens, 120 h) of 8.41 and an IC50 ([5]; Homo sapiens, A549, 120 h) of 9.7 nM.

With `[2H]C1([2H])Oc2cc3nc4c(c(CNC(=O)C(O)C5CC5)c3cc2O1)Cn1c-4cc2c(c1=O)COC(=O)[C@]2(O)CC` (stereo partly drawn) [Compound 39, 2-cyclopropyl-N-(((S)-7-ethyl-7-hydroxy-8,11-dioxo-7,8,11,13-tetrahydro-10H-[1,3]dioxolo[4,5-g]pyrano[3′,4′:6,7]indolizino[1,2-b]quinolin-14-yl-2,2-d2)methyl)-2-hydroxyacetamide] the IC50 ([1]; Homo sapiens, SK-OV-3, 120 h) was 2.6 nM, the IC50 [2] was 26.4 nM and the IC50 ([3]; Homo sapiens, PA-1, 120 h) was 1.5 nM. The IC50 ([5]; Homo sapiens, A549, 120 h) was 19.1 nM and the fraction unbound at 6 h, 1 μM ([6]; human, plasma) was 0.081.
